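96-well plates; 48 h exposure; 5 concentrations. Endpoints by linear interpolation between flanking doses. Not reached: highest tested concentration assigned. GI50 = concentration required for 50% inhibition of growth.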 The source made the active and inactive calls. Cut-off read from the data, not from the text of the source: active = GI50 up to about 1.1 µM and inactive = higher.
Key:
Experiment in all cases: growth of human tumour cells (NCI), 48 h
[1] = test system: OVCAR-4
[2] = test system: OVCAR-5
[3] = test system: UACC-257
[4] = test system: SK-OV-3
[5] = test system: SF-295
[6] = test system: RXF 393
[7] = test system: MOLT-4
[8] = test system: HL-60
[9] = test system: HCT-15
[10] = test system: OVCAR-3
[11] = test system: NCI-H460
[12] = test system: CAKI-1
[13] = test system: HOP-92
[14] = test system: TK-10
[15] = test system: SNB-78
[16] = test system: NCI-H226
[17] = test system: KM12
[18] = test system: IGROV-1
[19] = test system: SF-539
[20] = test system: HT-29
[21] = test system: SK-MEL-28
[22] = test system: Malme-3M
[23] = test system: SW-620
[24] = test system: HOP-62
[25] = test system: DMS-273
[26] = test system: OVCAR-8
[27] = test system: LOX IMVI
[28] = test system: M14
[29] = test system: COLO 205
[30] = test system: A549
[31] = test system: NCI-H23
[32] = test system: DLD-1
[33] = test system: U-251
[34] = test system: LXFL 529
[35] = test system: CCRF-CEM
[36] = test system: M19-MEL
[37] = test system: A498
[38] = test system: UO-31
[39] = test system: RPMI-8226
[40] = test system: SN12C
[41] = test system: SK-MEL-5
[42] = test system: HCT-116
[43] = test system: 786-0
[44] = test system: ACHN
[45] = test system: KM-20L2
[46] = test system: SNB-75
[47] = test system: SK-MEL-2
[48] = test system: XF498
[49] = test system: SF-268
[50] = test system: SNB-19
[51] = test system: DMS-114
[52] = test system: NCI-H522
[53] = test system: UACC-62
[54] = test system: HCC 2998
[55] = test system: EKVX
[56] = test system: SR
[57] = test system: K562

For `CC(C)C(Sc1nc(-c2ccccc2)c(-c2ccccc2)[nH]1)C(=O)NN` (stereo not drawn), the GI50 [1] was > 100 µM (inactive), the GI50 [2] was > 100 µM (inactive) and the GI50 [3] was > 100 µM (inactive). The GI50 [4] was > 100 µM (inactive), the GI50 [5] was 74.3 µM (inactive) and the GI50 [6] was 31.6 µM (inactive). For the same molecule, the GI50 [7] was 49.7 µM (inactive), the GI50 [8] was 31.6 µM (inactive) and the GI50 [9] was greater than 100 µM. The GI50 [10] was 98.4 µM (inactive), the GI50 [11] was 97.5 µM (inactive) and the GI50 [12] was > 100 µM (inactive). For the same molecule, the GI50 [13] was 73.1 µM (inactive), the GI50 [14] was 92.5 µM (inactive) and the GI50 [15] was > 100 µM (inactive). The GI50 [16] was > 100 µM (inactive), the GI50 [17] was > 100 µM (inactive) and the GI50 [18] was > 100 µM (inactive). For the same molecule, the GI50 [19] was > 100 µM (inactive), the GI50 [20] was > 100 µM (inactive) and the GI50 [21] was > 100 µM (inactive). For the same molecule, the GI50 [22] was > 100 µM (inactive), the GI50 [23] was > 100 µM (inactive) and the GI50 [24] was > 100 µM (inactive). For the same molecule, the GI50 [25] was > 100 µM (inactive), the GI50 [26] was > 100 µM (inactive) and the GI50 [27] was > 100 µM (inactive). The GI50 [28] was > 100 µM (inactive), the GI50 [29] was > 100 µM (inactive) and the GI50 [30] was > 100 µM (inactive). The GI50 [31] was > 100 µM (inactive), the GI50 [32] was > 100 µM (inactive) and the GI50 [33] was > 100 µM (inactive). The GI50 [34] was > 100 µM (inactive), the GI50 [35] was 31.6 µM (inactive) and the GI50 [36] was > 100 µM (inactive). The GI50 [37] was > 100 µM (inactive), the GI50 [38] was > 100 µM (inactive) and the GI50 [39] was > 100 µM (inactive). For the same molecule, the GI50 [40] was > 100 µM (inactive), the GI50 [41] was > 100 µM (inactive) and the GI50 [42] was > 100 µM (inactive). The GI50 [43] was > 100 µM (inactive), the GI50 [44] was > 100 µM (inactive) and the GI50 [45] was > 100 µM (inactive). For the same molecule, the GI50 [46] was > 100 µM (inactive), the GI50 [47] was > 100 µM (inactive) and the GI50 [48] was 72.8 µM (inactive). The GI50 [49] was > 100 µM (inactive), the GI50 [50] was > 100 µM (inactive) and the GI50 [51] was 99.8 µM (inactive). The GI50 [52] was 74.8 µM (inactive).

`COC(=O)c1cc(C)c(C)c2c1NC(=O)CNC2=O` was tested, and the GI50 [1] was > 100 µM (inactive), the GI50 [53] was > 100 µM (inactive) and the GI50 [3] was > 100 µM (inactive). For the same molecule, the GI50 [5] was > 100 µM (inactive), the GI50 [6] was > 100 µM (inactive) and the GI50 [7] was > 100 µM (inactive). The GI50 [8] was > 100 µM (inactive), the GI50 [9] was greater than 100 µM and the GI50 [10] was > 100 µM (inactive). For the same molecule, the GI50 [11] was > 100 µM (inactive), the GI50 [12] was > 100 µM (inactive) and the GI50 [15] was > 100 µM (inactive). For the same molecule, the GI50 [54] was > 100 µM (inactive), the GI50 [17] was > 100 µM (inactive) and the GI50 [18] was > 100 µM (inactive). For the same molecule, the GI50 [19] was > 100 µM (inactive), the GI50 [20] was > 100 µM (inactive) and the GI50 [21] was > 100 µM (inactive). For the same molecule, the GI50 [55] was > 100 µM (inactive), the GI50 [23] was > 100 µM (inactive) and the GI50 [24] was > 100 µM (inactive). The GI50 [25] was > 100 µM (inactive), the GI50 [26] was > 100 µM (inactive) and the GI50 [56] was > 100 µM (inactive). For the same molecule, the GI50 [28] was > 100 µM (inactive), the GI50 [29] was > 100 µM (inactive) and the GI50 [30] was > 100 µM (inactive). The GI50 [31] was > 100 µM (inactive), the GI50 [32] was > 100 µM (inactive) and the GI50 [33] was > 100 µM (inactive). For the same molecule, the GI50 [34] was > 100 µM (inactive), the GI50 [35] was > 100 µM (inactive) and the GI50 [36] was > 100 µM (inactive). For the same molecule, the GI50 [37] was > 100 µM (inactive), the GI50 [38] was 33.5 µM (inactive) and the GI50 [39] was > 100 µM (inactive). For the same molecule, the GI50 [40] was > 100 µM (inactive), the GI50 [42] was > 100 µM (inactive) and the GI50 [43] was > 100 µM (inactive). For the same molecule, the GI50 [44] was > 100 µM (inactive), the GI50 [45] was > 100 µM (inactive) and the GI50 [57] was > 100 µM (inactive). For the same molecule, the GI50 [46] was > 100 µM (inactive), the GI50 [47] was > 100 µM (inactive) and the GI50 [48] was > 100 µM (inactive). For the same molecule, the GI50 [51] was > 100 µM (inactive).
